Test results reported in patent publication US5733924A, “DC 107 derivatives and treatment methods” (Kyowa Hakko Kogyo Co., Ltd., priority 1995, dated 1998).
In brackets after ≈: the same amount, converted by molar mass. Like-named read-outs stand apart in the source and are kept apart here.

Key:
P388 Leukemia = assay: Antitumor activity against P388 leukemia in mice (increased life span); format: in vivo, CDF1 mice; conditions: Mus musculus, P388, ip, 720 h
Experimental: Ascites were collected from the abdominal cavity of P388 ascites tumor-bearing cancer mice (DBA/2) on the 7th day after transplantation. A number of P388 cells in the ascites was counted, and a tumor cell floating liquid of 5×10^6 cells/ml was prepared using a physiological saline solution. Then, 0.2 ml of the solution containing 1×10^6 cells was transplanted into the abdominal cavity of CDF1 mice having a body weight of from 20 to 25 g.
The effect of the test compound was determined in terms of the ratio of average survival days of the group administered with the test compound to average survival days of the control group (non-medicated group) (i.e., an increased life span, ILS%).

Escherichia coli ATCC 26 = assay: Antibacterial activity, agar dilution method (MIC); format: cell-based
Excerpt: (§1) The antibacterial activity as determined by the agar dilution method using a medium prepared by dissolving 3 g of Bacto-Tryptone (a product of Difco Laboratories), 3 g of a meat extract, 1 g of an yeast extract, 1 g of glucose and 16 g of agar in one liter of water (pH 7).
EC: Escherichia coli ATCC 26

[1] = test system: Bacillus subtilis No. 10707; assay: Antibacterial activity, agar dilution method (MIC); format: cell-based
Excerpt: as §1
BS: Bacillus subtilis No. 10707

[2] = test system: Enterococcus faecium ATCC 10541; assay: Antibacterial activity, agar dilution method (MIC); format: cell-based
Excerpt: as §1
EF: Enterococcus faecium ATCC 10541

[3] = test system: Klebsiella pneumoniae ATCC 10031; assay: Antibacterial activity, agar dilution method (MIC); format: cell-based
Excerpt: as §1
KP: Klebsiella pneumoniae ATCC 10031

[4] = test system: Staphylococcus aureus ATCC 6538P; assay: Antibacterial activity, agar dilution method (MIC); format: cell-based; conditions: ATCC6538P
Excerpt: as §1
SA: Staphylococcus aureus ATCC 6538P

various bacteria = conditions: Japanese Published Unexamined Patent Application No. 112988/89; cited from earlier work
[5] = Japanese Published Unexamined Patent Application No. 112988/89; cited from earlier work
[6] = single i.p. 24 hours after transplantation, CDF1 mice, 30 days observation, read-out: ILS (increased life span)
[7] = ATCC26, EC: Escherichia coli ATCC 26, pH 7, read-out: MIC (minimum growth inhibitory concentration)
[8] = BS: Bacillus subtilis No. 10707, pH 7, read-out: MIC (minimum growth inhibitory concentration)
[9] = ATCC10541, EF: Enterococcus faecium ATCC 10541, pH 7, read-out: MIC (minimum growth inhibitory concentration)
[10] = ATCC10031, KP: Klebsiella pneumoniae ATCC 10031, agar dilution, pH 7, read-out: MIC (minimum growth inhibitory concentration)
[11] = SA: Staphylococcus aureus ATCC 6538P, agar dilution, pH 7, read-out: MIC (minimum growth inhibitory concentration)
[12] = read-out: ILS (increased life span)
[13] = Escherichia coli, ATCC26, pH 7, read-out: MIC (minimum growth inhibitory concentration), EC: Escherichia coli ATCC 26
[14] = Bacillus subtilis, NO.10707, pH 7, read-out: MIC (minimum growth inhibitory concentration), BS: Bacillus subtilis No. 10707
[15] = Enterococcus faecium, ATCC10541, pH 7, read-out: MIC (minimum growth inhibitory concentration), EF: Enterococcus faecium ATCC 10541
[16] = Klebsiella pneumoniae, ATCC10031, pH 7, read-out: MIC (minimum growth inhibitory concentration)
[17] = Staphylococcus aureus, pH 7, read-out: MIC (minimum growth inhibitory concentration)
[18] = 4.0 mg/kg, single i.p. 24 hours after transplantation, CDF1 mice, 30 days observation, read-out: ILS (increased life span)
[19] = single i.p. 24 hours after transplantation, CDF1 mice, 30 days observation

Row | SMILES | MIC (Escherichia coli ATCC 26; [7]) | MIC [1, 8] | MIC [2, 9] | MIC [3, 10] | MIC [4, 11] | further results
1 | CCC(=O)OC1/C=C(\C)CCC2(CC(=O)NC(C)c3nc(cs3)/C=C\C=C\C1=O)[S+]([O-])SC(=O)C2(C)O (centres unmarked) [Compound 2] | 1.3 µg/mL (≈ 2.29 µM) | 0.33 µg/mL (≈ 0.582 µM) | 0.081 µg/mL (≈ 0.143 µM) | 0.65 µg/mL (≈ 1.15 µM) | 0.041 µg/mL (≈ 0.0723 µM) | ILS at 2 mg/kg (P388 Leukemia; [6]): 42%
2 | C/C1=C\C(OC(=O)C2CCCCC2)C(=O)/C=C/C=C\c2csc(n2)C(C)NC(=O)CC2(CC1)[S+]([O-])SC(=O)C2(C)O (centres unmarked) [Compound 6] | 3.7 µg/mL (≈ 5.96 µM) | 0.028 µg/mL (≈ 0.0451 µM) | 0.91 µg/mL (≈ 1.47 µM) | 7.3 µg/mL (≈ 11.8 µM) | 0.91 µg/mL (≈ 1.47 µM) | ILS at 4 mg/kg (P388 Leukemia; [12]): 49%
3 | CCOCOC1/C=C(\C)CCC2(C(C)(O)C(=O)SCc3oc(=O)oc3C)CC(=O)N(C(C)c3nc(cs3)/C=C\C=C\C1=O)[S+]2[O-] (centres unmarked) [Compound 59] | 21 µg/mL (≈ 30.8 µM) | 0.65 µg/mL (≈ 0.955 µM) | 1.3 µg/mL (≈ 1.91 µM) | 5.2 µg/mL (≈ 7.64 µM) | 1.3 µg/mL (≈ 1.91 µM) | ILS at 2 mg/kg (P388 Leukemia; [6]): 47%
4 | C/C1=C\C(OC(=O)CNC(=O)OCc2ccccc2)C(=O)/C=C/C=C\c2csc(n2)C(C)NC(=O)CC2(CC1)[S+]([O-])SC(=O)C2(C)O (centres unmarked) [Compound 97] | 0.65 µg/mL (≈ 0.926 µM) | 0.33 µg/mL (≈ 0.47 µM) | 0.041 µg/mL (≈ 0.0584 µM) | 0.81 µg/mL (≈ 1.15 µM) | 0.041 µg/mL (≈ 0.0584 µM) | ILS at 8 mg/kg (P388 Leukemia; [6]): 54%
5 | C/C1=C\C(OC(=O)CNC=O)C(=O)/C=C/C=C\c2csc(n2)C(C)NC(=O)CC2(CC1)[S+]([O-])SC(=O)C2(C)O (centres unmarked) [Compound 99] | 2.6 µg/mL (≈ 4.36 µM) | 0.041 µg/mL (≈ 0.0688 µM) | 0.041 µg/mL (≈ 0.0688 µM) | 0.041 µg/mL (≈ 0.0688 µM) | 0.041 µg/mL (≈ 0.0688 µM) | ILS at 8 mg/kg (P388 Leukemia; [6]): 56%
6 | CC(=O)NCC(=O)OC1/C=C(\C)CCC2(CC(=O)NC(C)c3nc(cs3)/C=C\C=C\C1=O)[S+]([O-])SC(=O)C2(C)O (centres unmarked) [Compound 100] |  |  |  |  |  | ILS at 4 mg/kg (P388 Leukemia; [12]): 66%; MIC (Escherichia coli ATCC 26; [13]): 2.6 µg/mL (≈ 4.26 µM); MIC [1, 14]: 0.081 µg/mL (≈ 0.133 µM); MIC [2, 15]: 0.041 µg/mL (≈ 0.0672 µM); MIC [3, 16]: 0.041 µg/mL (≈ 0.0672 µM); MIC [4, 17]: 0.041 µg/mL (≈ 0.0672 µM)
7 | C/C1=C\C(OC(=O)[C@H](C)NC(=O)OCc2ccccc2)C(=O)/C=C/C=C\c2csc(n2)C(C)NC(=O)CC2(CC1)[S+]([O-])SC(=O)C2(C)O (some centres unmarked) [Compound 103] | 10 µg/mL (≈ 14 µM) | 0.041 µg/mL (≈ 0.0573 µM) | 0.081 µg/mL (≈ 0.113 µM) | 1.3 µg/mL (≈ 1.82 µM) | 42 µg/mL (≈ 58.7 µM) | ILS at 4 mg/kg (P388 Leukemia; [18]): 52%
8 | C/C1=C\C(OC(=O)CCCNC(=O)OCc2ccccc2)C(=O)/C=C/C=C\c2csc(n2)C(C)NC(=O)CC2(CC1)[S+]([O-])SC(=O)C2(C)O (centres unmarked) [Compound 106] | 10 µg/mL (≈ 13.7 µM) | 0.041 µg/mL (≈ 0.0562 µM) | 0.16 µg/mL (≈ 0.219 µM) | 1.3 µg/mL (≈ 1.78 µM) | 0.16 µg/mL (≈ 0.219 µM) | ILS at 16 mg/kg (P388 Leukemia; [19]): 62%
9 | C/C1=C\C(OC(=O)CNC(=O)CNC(=O)OCc2ccccc2)C(=O)/C=C/C=C\c2csc(n2)C(C)NC(=O)CC2(CC1)[S+]([O-])SC(=O)C2(C)O (centres unmarked) [Compound 108] | 21 µg/mL (≈ 27.7 µM) | 0.041 µg/mL (≈ 0.054 µM) | 0.081 µg/mL (≈ 0.107 µM) | 0.33 µg/mL (≈ 0.435 µM) | 0.16 µg/mL (≈ 0.211 µM) | ILS at 4 mg/kg (P388 Leukemia; [18]): 72%
10 | C/C1=C\C(OC(=O)CNC(=O)CNC(=O)c2ccccc2)C(=O)/C=C/C=C\c2csc(n2)C(C)NC(=O)CC2(CC1)[S+]([O-])SC(=O)C2(C)O (centres unmarked) [Compound 109] | 3.2 µg/mL (≈ 4.39 µM) | 0.35 µg/mL (≈ 0.48 µM) | 0.081 µg/mL (≈ 0.111 µM) | 0.041 µg/mL (≈ 0.0563 µM) | 0.081 µg/mL (≈ 0.111 µM) | ILS at 8 mg/kg (P388 Leukemia; [6]): 78%
11 | C/C1=C\C(OC(=O)CNC(=O)CCNC(=O)OCc2ccccc2)C(=O)/C=C/C=C\c2csc(n2)C(C)NC(=O)CC2(CC1)[S+]([O-])SC(=O)C2(C)O (centres unmarked) [Compound 111] | 2.6 µg/mL (≈ 3.36 µM) | 0.081 µg/mL (≈ 0.105 µM) | 0.16 µg/mL (≈ 0.207 µM) | 0.041 µg/mL (≈ 0.053 µM) | 0.33 µg/mL (≈ 0.427 µM) | ILS at 16 mg/kg (P388 Leukemia; [19]): 76%
12 | C/C1=C\C(OC(=O)CNC(=O)CN(C)C(=O)OCc2ccccc2)C(=O)/C=C/C=C\c2csc(n2)C(C)NC(=O)CC2(CC1)[S+]([O-])SC(=O)C2(C)O (centres unmarked) [Compound 114] | 11 µg/mL (≈ 14.2 µM) | 0.037 µg/mL (≈ 0.0479 µM) | 0.037 µg/mL (≈ 0.0479 µM) | 1.2 µg/mL (≈ 1.55 µM) | 0.037 µg/mL (≈ 0.0479 µM) | ILS at 4 mg/kg (P388 Leukemia; [18]): 70%
13 | C/C1=C\C(OC(=O)CN(C)C(=O)CCNC(=O)OCc2ccccc2)C(=O)/C=C/C=C\c2csc(n2)C(C)NC(=O)CC2(CC1)[S+]([O-])SC(=O)C2(C)O (centres unmarked) [Compound 117] | 0.46 µg/mL (≈ 0.585 µM) | 0.13 µg/mL (≈ 0.165 µM) | 0.23 µg/mL (≈ 0.292 µM) | 0.057 µg/mL (≈ 0.0724 µM) | 0.13 µg/mL (≈ 0.165 µM) | ILS at 16 mg/kg (P388 Leukemia; [19]): 73%
14 | COC1(OC2C=C(C)CCC3(C(C)(O)C(=O)SCc4oc(=O)oc4C)CC(=O)N(C(C)c4nc(cs4)C=CC=CC2=O)[S+]3[O-])CCOCC1 (centres unmarked) [Compound 122] | 42 µg/mL (≈ 57 µM) | 0.16 µg/mL (≈ 0.217 µM) | 1.3 µg/mL (≈ 1.76 µM) | 2.6 µg/mL (≈ 3.53 µM) | 0.65 µg/mL (≈ 0.882 µM) | ILS at 2 mg/kg (P388 Leukemia; [6]): 52%
15 | CC1=CC(OC(=O)c2ccccn2)C(=O)C=CC=Cc2csc(n2)C(C)N2C(=O)CC(C(C)(O)C(=O)SCc3oc(=O)oc3C)(CC1)[S+]2[O-] (centres unmarked) [Compound 143] |  |  |  |  |  | ILS at 0.5 mg/kg (P388 Leukemia; [12]): 49%; MIC (Escherichia coli ATCC 26; [13]): 5.2 µg/mL (≈ 7.14 µM); MIC [1, 14]: 0.16 µg/mL (≈ 0.22 µM); MIC [2, 15]: 0.33 µg/mL (≈ 0.453 µM); MIC [3, 16]: 0.65 µg/mL (≈ 0.893 µM); MIC [4, 17]: 0.16 µg/mL (≈ 0.22 µM)
16 | CC1=CC(OC(=O)CNC(=O)CCNC(=O)OC(C)(C)C)C(=O)C=CC=Cc2csc(n2)C(C)N2C(=O)CC(C(C)(O)C(=O)SCc3oc(=O)oc3C)(CC1)[S+]2[O-] (centres unmarked) [Compound 170] | 75 µg/mL (≈ 88.1 µM) | 2.3 µg/mL (≈ 2.7 µM) | 2.3 µg/mL (≈ 2.7 µM) | 2.3 µg/mL (≈ 2.7 µM) | 2.3 µg/mL (≈ 2.7 µM) | ILS at 8 mg/kg (P388 Leukemia; [6]): 70%
17 | C/C1=C\C(O)C(=O)/C=C/C=C\c2csc(n2)C(C)NC(=O)CC2(CC1)[S+]([O-])SC(=O)C2(C)O (centres unmarked) [DC107] |  |  |  |  |  | antibacterial activity (various bacteria): exhibits an antibacterial activity against various bacteria; antitumor activity [5]: also an antitumor activity
